Values of other authors, collected in US20180027805A1, “ACID HERBICIDE-CONTAINING COMPOSITIONS, PRECURSORS, DERIVATIVES, AND METHODS” (priority 2015, published 2018).

| Compound | pKa |
| --- | --- |
| CC(C)C1(C)N=C(c2nc3ccccc3cc2C(=O)O)NC1=O (centres unmarked) [Imazaquin] | 3.8 |
| O=C(O)c1cc(Oc2ccc(C(F)(F)F)cc2Cl)ccc1[N+](=O)[O-] [Acifluorfen] | 3.86 |
| O=C(O)COc1nc(Cl)c(Cl)cc1Cl [Triclopyr, 3,5,6-trichloro-2-pyridyloxyacetic acid] | 2.68 |
| COc1c(Cl)ccc(Cl)c1C(=O)O [Dicamba, 3,6-dichloro-O-anisic acid] | 1.87 |
| Imazamethbenz | 2.9 |
| N#Cc1cc(Br)c(O)c(Br)c1 [Bromoxynil] | 4.06 |
| O=C(O)CCCOc1ccc(Cl)cc1Cl [2,4-DB] | 4.8 |
| CC(Oc1ccc(Oc2ncc(C(F)(F)F)cc2Cl)cc1)C(=O)O (centres unmarked) [Haloxyfop] | 4.33 |
| CC(Oc1ccc(Oc2ccc(Cl)cc2Cl)cc1)C(=O)O (centres unmarked) [Diclofop] | 3.57 |
| Nc1c(Cl)c(Cl)nc(C(=O)O)c1Cl [Picloram] | 2.3 |
| C[C@@H](Oc1ccc(Oc2ccc(C(F)(F)F)cn2)cc1)C(=O)O [Fluazifop-p] | 2.98 |
